Measurements reported in ChEMBL document CHEMBL5620417, “N-aryltetrahydroisoquinoline derivatives as HA-CD44 interaction inhibitors: Design, synthesis, computational studies, and antitumor effect” (Eur J Med Chem, 2023).
The source made the active and inactive calls. The calls are words filed in the database; no cut-off is given here.

Experiments:
[1] = test system: A549; test: Antiproliferative activity against human A549 cells assessed as reduction in cell viability at >=100 uM incubated for 5 days by PrestoBlue reagent based glo-max fluorescence assay; type: functional; details: time 5.0 day
[2] = test system: MDA-MB-231; test: Antiproliferative activity against human MDA-MB-231 cells assessed as reduction in cell viability at >=100 uM incubated for 5 days by PrestoBlue reagent based glo-max fluorescence assay; type: functional; details: time 5.0 day
[3] = test system: A549; test: Antiproliferative activity against human A549 cells assessed as reduction in cell viability incubated for 5 days by PrestoBlue reagent based glo-max fluorescence assay; type: functional; details: A549, 120 h
[4] = test system: MDA-MB-231; test: Antiproliferative activity against human MDA-MB-231 cells assessed as reduction in cell viability incubated for 5 days by PrestoBlue reagent based glo-max fluorescence assay; type: functional; details: MDA-MB-231, 120 h
[5] = test system: MDA-MB-231; test: Antiproliferative activity against human MDA-MB-231 cells assessed as reduction in cell viability at <=70 uM incubated for 5 days by PrestoBlue reagent based glo-max fluorescence assay; type: functional; details: time 5.0 day
[6] = test system: MDA-MB-231; test: Antiproliferative activity against human MDA-MB-231 cells assessed as reduction in cell viability incubated for 5 days pre-incubated with anti-CD44 antibody IM7 by PrestoBlue reagent based glo-max fluorescence assay relative to control; type: functional; details: time 5 day
[7] = target: CD44 antigen (Homo sapiens) (UniProt P16070); test: Displacement of HA-FITC from CD44 in human MDA-MB-231 cells assessed as decrease in fluorescent intensity at 120 ug/ml incubated for 45 mins by competitive binding assay based flow cytometric analysis; type: cell-based; details: dose 120.0 µg/ml
[8] = test system: MDA-MB-231; test: Antiproliferative activity against human MDA-MB-231 cells assessed as increase in dead cell in spheroid at 1 uM incubated for 5 days by PrestoBlue reagent based microscopic analysis; type: functional; details: time 5.0 day
[9] = test system: MDA-MB-231; test: Antiproliferative activity against human MDA-MB-231 cells assessed as decrease in viable cells incubated for 5 days by PrestoBlue reagent based glo-max fluorescence assay; type: functional, cell-based; details: time 5.0 day
[10] = test system: MDA-MB-231; test: Antiproliferative activity against human MDA-MB-231 cells assessed as spheroid disaggregation at 100 uM incubated for 5 days by PrestoBlue reagent based microscopic analysis; type: functional, cell-based; details: time 5.0 day
[11] = test system: MDA-MB-231; test: Antiproliferative activity against human MDA-MB-231 cells assessed as change in spheroid integrity at 1 uM incubated for 5 days by PrestoBlue reagent based microscopic analysis; type: functional, cell-based; details: time 5.0 day
[12] = test system: MDA-MB-231; test: Antiproliferative activity against human MDA-MB-231 cells assessed as fold change in cell viability incubated for 5 days by PrestoBlue reagent based glo-max fluorescence assay; type: functional; details: time 5 day

Sequence of CD44 antigen (Homo sapiens) (P16070 whole entry): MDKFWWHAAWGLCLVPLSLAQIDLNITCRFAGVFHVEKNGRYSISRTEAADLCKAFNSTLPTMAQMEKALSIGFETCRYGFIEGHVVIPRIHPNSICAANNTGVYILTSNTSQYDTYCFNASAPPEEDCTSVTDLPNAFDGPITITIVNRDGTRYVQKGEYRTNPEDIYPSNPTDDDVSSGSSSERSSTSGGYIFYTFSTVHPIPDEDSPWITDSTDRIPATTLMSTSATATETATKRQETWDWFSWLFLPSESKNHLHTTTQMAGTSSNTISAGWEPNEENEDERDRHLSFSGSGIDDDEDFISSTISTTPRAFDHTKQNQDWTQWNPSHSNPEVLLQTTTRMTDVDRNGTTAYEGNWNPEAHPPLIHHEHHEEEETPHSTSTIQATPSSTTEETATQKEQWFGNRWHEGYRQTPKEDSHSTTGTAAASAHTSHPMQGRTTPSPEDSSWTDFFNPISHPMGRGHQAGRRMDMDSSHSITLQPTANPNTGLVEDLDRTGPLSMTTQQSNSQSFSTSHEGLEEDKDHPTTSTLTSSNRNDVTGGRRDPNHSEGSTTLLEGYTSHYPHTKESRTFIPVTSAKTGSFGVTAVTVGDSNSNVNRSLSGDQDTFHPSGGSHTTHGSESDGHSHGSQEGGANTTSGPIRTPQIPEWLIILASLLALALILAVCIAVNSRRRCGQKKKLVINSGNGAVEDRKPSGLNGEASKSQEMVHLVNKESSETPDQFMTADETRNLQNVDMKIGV

Structure (SMILES): Nc1cccc2c1CCN(S(=O)(=O)c1ccc([N+](=O)[O-])cc1)C2
- Activity [1]: inactive
- Activity [2]: inactive

Structure (SMILES): Nc1cccc2c1CCN(Cc1ccc(C(F)(F)F)cc1)C2
- EC50 [3]: 34.7 µM
- EC50 [4]: 52.1 µM

Structure (SMILES): Cc1ccc(S(=O)(=O)N2CCc3c(N)cccc3C2)cc1
- Activity [1]: inactive
- Activity [2]: inactive

Structure (SMILES): Nc1cccc2c1CN(Cc1ccc(Br)cc1)CC2
- EC50 [3]: 37.9 µM
- EC50 [4]: 77.1 µM

Structure (SMILES): Nc1cccc2c1CN(S(=O)(=O)c1ccc([N+](=O)[O-])cc1)CC2
- Activity [1]: inactive
- Activity [2]: inactive

Structure (SMILES): COc1cc(CN2CCc3cccc(N)c3C2)cc(OC)c1OC
- EC50 [3]: 72.4 µM
- Activity [5]: Active
- EC50 [4]: 57.4 µM

Structure (SMILES): COc1cc2c(cc1OC)CN(Cc1ccc(C(F)(F)F)cc1)CC2
- EC50 [3]: 34.7 µM
- EC50 [4]: 52.1 µM

Structure (SMILES): Cc1ccc(S(=O)(=O)N2CCc3ccccc3C2)cc1
- Activity [1]: inactive
- Activity [2]: inactive

Structure (SMILES): Cc1ccc(S(=O)(=O)N2CCc3cccc(N)c3C2)cc1
- Activity [1]: inactive
- Activity [2]: inactive

Structure (SMILES): Brc1ccc(CN2CCc3ccccc3C2)cc1
- EC50 [3]: 37.9 µM
- EC50 [4]: 77.1 µM

Structure (SMILES): Nc1cccc2c1CN(Cc1ccc(C(F)(F)F)cc1)CC2
- EC50 [3]: 34.7 µM
- EC50 [4]: 52.1 µM

Structure (SMILES): COc1cc2c(cc1OC)CN(S(=O)(=O)c1ccc(C)cc1)CC2
- Activity [1]: inactive
- Activity [2]: inactive

Structure (SMILES): COc1cc2c(cc1OC)CN(S(=O)(=O)c1ccc([N+](=O)[O-])cc1)CC2
- Activity [1]: inactive
- Activity [2]: inactive

Structure (SMILES): COc1cc(CN2CCc3c(N)cccc3C2)cc(OC)c1OC
- Activity [6]: 13%
- EC50 [3]: 3.48 µM
- Activity [7]: Active
- Activity [5]: Active
- EC50 [4]: 2.31 µM

Structure (SMILES): COc1cc(CN2CCc3c(O)cccc3C2)cc(OC)c1OC
- Activity [8]: Active
- Activity [6]: 21%
- Activity [9]: Dose-Dependent Effect
- Activity [10]: Active
- Activity [11]: Active
- Activity [7]: Active
- fold change (FC) [12]: 4
- EC50 [4]: 0.59 µM

Structure (SMILES): COc1cc(CN2CCc3ccccc3C2)cc(OC)c1OC
- EC50 [3]: 48.2 µM
- Activity [5]: Active
- EC50 [4]: 19.8 µM

Structure (SMILES): COc1cc2c(cc1OC)CN(Cc1ccc(Br)cc1)CC2
- EC50 [3]: 37.9 µM
- EC50 [4]: 77.1 µM

Structure (SMILES): O=[N+]([O-])c1ccc(S(=O)(=O)N2CCc3ccccc3C2)cc1
- Activity [1]: inactive
- EC50 [4]: 61.8 µM

Structure (SMILES): CC(=O)CCN1CCc2ccccc2C1
- EC50 [4]: 8 µM

Structure (SMILES): FC(F)(F)c1ccc(CNc2cccc3c2CN(Cc2ccc(C(F)(F)F)cc2)CC3)cc1
- EC50 [3]: 37 µM
- EC50 [4]: 31.5 µM

Structure (SMILES): FC(F)(F)c1ccc(CN2CCc3ccccc3C2)cc1
- EC50 [3]: 34.7 µM
- EC50 [4]: 52.1 µM

Structure (SMILES): COc1cc(CN2CCc3c(Br)cccc3C2)cc(OC)c1OC
- Activity [6]: 24%
- Activity [7]: Active
- fold change (FC) [12]: 1.3
- EC50 [4]: 1.77 µM

Structure (SMILES): Nc1cccc2c1CCN(Cc1ccc(Br)cc1)C2
- EC50 [3]: 37.9 µM
- EC50 [4]: 77.1 µM

Structure (SMILES): COc1cc2c(cc1OC)CN(Cc1cc(OC)c(OC)c(OC)c1)CC2
- EC50 [3]: 77.7 µM
- Activity [5]: Active
- EC50 [4]: 70.3 µM
